Some results are limits rather than exact numbers.

As usually defined, the Ki is a dissociation constant, usually derived from enzyme kinetics or from competition with a known ligand. Higher therefore signals weaker binding. As usually defined, the EC50 is the concentration needed to bring the measured effect to its halfway point.

Assay [1] concerns the target T1, Beta-2 adrenergic receptor (Homo sapiens, UniProt P07550). The assay is described as follows: Displacement of [3H]CGP12177 from human beta2 receptor expressed in CHO cells. Type of assay: cell-based.
Assay [2] in a line: Displacement of [3H]RX821002 from alpha-2 receptor in porcine cortical membranes. It is filed as cell membranes, Sus scrofa. For orientation: Displacement assays read how much labelled ligand stays bound in the presence of the test substance.
Assay [3] addresses T1, Beta-2 adrenergic receptor. As to the kind of experiment: Agonist activity at PK-tagged beta2 receptor (unknown origin) transfected in HEK293 cells after 90 mins by beta-arrestin assay. Type of assay: cell-based.
The next assay has as its target D(3) dopamine receptor (Homo sapiens, UniProt P35462). The assay is described as follows: Displacement of [3H]spiperone from human D3 receptor expressed in CHO cells. Type of assay: cell-based.
The target of assay [4] is T2, D(2) dopamine receptor (Homo sapiens, UniProt P14416). The assay is described as follows: Displacement of [3H]spiperone from human D2S receptor expressed in CHO cells. It is filed as cell-based.
T2 sequence (P14416 whole entry): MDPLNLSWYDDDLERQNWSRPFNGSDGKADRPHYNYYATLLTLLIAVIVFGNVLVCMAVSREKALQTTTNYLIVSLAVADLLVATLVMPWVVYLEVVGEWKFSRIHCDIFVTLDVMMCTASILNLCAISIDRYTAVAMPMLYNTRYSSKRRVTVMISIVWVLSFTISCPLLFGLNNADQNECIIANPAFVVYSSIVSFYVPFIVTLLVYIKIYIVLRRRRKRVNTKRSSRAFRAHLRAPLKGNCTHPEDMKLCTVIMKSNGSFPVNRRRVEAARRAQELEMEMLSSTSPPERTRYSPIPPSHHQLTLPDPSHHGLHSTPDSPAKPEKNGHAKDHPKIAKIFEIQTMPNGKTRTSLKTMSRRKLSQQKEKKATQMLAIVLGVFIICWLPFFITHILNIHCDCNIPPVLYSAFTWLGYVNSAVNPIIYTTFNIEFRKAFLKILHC
In assay [5] the target is Beta-1 adrenergic receptor (Mus musculus, UniProt P34971). As to the kind of experiment: Displacement of [3H]CGP12177 from mouse beta1 receptor expressed in HEK293 cells. Type of assay: cell-based.
Sequence of Beta-1 adrenergic receptor (P34971 whole entry): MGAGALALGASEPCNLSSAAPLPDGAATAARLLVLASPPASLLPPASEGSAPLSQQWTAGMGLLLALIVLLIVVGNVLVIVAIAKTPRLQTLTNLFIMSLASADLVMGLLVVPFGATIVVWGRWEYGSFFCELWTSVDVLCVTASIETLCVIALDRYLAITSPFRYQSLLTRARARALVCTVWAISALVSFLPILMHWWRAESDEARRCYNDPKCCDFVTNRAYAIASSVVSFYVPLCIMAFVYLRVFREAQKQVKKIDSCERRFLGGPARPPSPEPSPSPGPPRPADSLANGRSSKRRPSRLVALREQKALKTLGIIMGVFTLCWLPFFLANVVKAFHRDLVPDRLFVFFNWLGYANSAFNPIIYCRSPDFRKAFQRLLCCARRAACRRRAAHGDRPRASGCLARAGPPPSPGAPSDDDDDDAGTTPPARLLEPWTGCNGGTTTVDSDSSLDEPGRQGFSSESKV
For assay [6], the target named is T2, D(2) dopamine receptor. As to the kind of experiment: Displacement of [3H]spiperone from human D2L receptor expressed in CHO cells. It is filed as cell-based.
Another assay deals with D(1A) dopamine receptor (Homo sapiens, UniProt P21728). As to the kind of experiment: Displacement of [3H]SCH23390 from human D1 receptor expressed in HEK293 cells. Type of assay: cell-based.
Sequence of D(1A) dopamine receptor (P21728 whole entry): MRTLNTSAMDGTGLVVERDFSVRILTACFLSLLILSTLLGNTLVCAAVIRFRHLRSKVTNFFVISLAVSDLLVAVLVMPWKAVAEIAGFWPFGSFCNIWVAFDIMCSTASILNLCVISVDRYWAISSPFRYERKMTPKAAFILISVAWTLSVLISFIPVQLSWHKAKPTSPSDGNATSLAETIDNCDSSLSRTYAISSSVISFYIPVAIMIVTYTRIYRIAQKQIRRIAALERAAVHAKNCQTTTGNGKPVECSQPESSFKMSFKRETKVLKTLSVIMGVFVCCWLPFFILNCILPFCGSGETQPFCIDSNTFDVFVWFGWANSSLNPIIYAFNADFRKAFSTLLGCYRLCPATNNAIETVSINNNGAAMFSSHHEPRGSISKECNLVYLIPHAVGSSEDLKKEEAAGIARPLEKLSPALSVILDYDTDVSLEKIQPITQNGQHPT
The next assay addresses T3, D(4) dopamine receptor (Homo sapiens, UniProt P21917).
T3 sequence (P21917 whole entry): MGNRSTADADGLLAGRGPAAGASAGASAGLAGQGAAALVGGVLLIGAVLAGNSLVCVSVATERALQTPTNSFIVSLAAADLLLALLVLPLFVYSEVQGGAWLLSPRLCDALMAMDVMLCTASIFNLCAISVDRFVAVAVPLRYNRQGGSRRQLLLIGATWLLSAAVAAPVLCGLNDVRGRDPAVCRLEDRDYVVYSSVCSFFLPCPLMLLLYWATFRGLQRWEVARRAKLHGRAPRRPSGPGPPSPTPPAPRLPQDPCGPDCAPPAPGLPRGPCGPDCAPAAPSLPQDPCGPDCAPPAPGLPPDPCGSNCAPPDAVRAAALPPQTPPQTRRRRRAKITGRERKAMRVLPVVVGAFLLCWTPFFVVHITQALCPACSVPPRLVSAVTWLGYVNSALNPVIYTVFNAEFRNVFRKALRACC
The assay is described as follows: Displacement of [3H]spiperone from human D4.4 receptor expressed in CHO cells. It is filed as cell-based.

Assay [7] concerns the target T1, Beta-2 adrenergic receptor. The assay is described as follows: Agonist activity at human beta2 receptor expressed in HEK293 cells cotransfected with Gqs5 protein assessed as [3H]IP3 accumulation after 120 mins by scintillation counting assay in presence of myo-[3H]-inositol. Type of assay: functional, cell-based.
Assay [8] in a line: Displacement of [3H]prazosine from alpha-1 receptor in porcine cortical membranes. It is filed as cell membranes, Sus scrofa.
In assay [9] the target is T2, D(2) dopamine receptor. As to the kind of experiment: Agonist activity at human D2S receptor expressed in HEK293 cells cotransfected with Gqi5 protein assessed as [3H]IP3 accumulation after 120 mins by scintillation counting assay in presence of myo-[3H]-inositol. Type of assay: functional, cell-based.
Assay [10] deals with T2, D(2) dopamine receptor. The assay is described as follows: Agonist activity at ARMS2-PK-tagged D2S receptor (unknown origin) transfected in HEK293 cells after 5 hrs by beta-arrestin assay. It is filed as cell-based.
The species named for a further assay is Homo sapiens. As to the kind of experiment: Selectivity index, ratio of Ki for human D2S receptor to Ki for human beta2 receptor.

Sequence of D(3) dopamine receptor (P35462 whole entry): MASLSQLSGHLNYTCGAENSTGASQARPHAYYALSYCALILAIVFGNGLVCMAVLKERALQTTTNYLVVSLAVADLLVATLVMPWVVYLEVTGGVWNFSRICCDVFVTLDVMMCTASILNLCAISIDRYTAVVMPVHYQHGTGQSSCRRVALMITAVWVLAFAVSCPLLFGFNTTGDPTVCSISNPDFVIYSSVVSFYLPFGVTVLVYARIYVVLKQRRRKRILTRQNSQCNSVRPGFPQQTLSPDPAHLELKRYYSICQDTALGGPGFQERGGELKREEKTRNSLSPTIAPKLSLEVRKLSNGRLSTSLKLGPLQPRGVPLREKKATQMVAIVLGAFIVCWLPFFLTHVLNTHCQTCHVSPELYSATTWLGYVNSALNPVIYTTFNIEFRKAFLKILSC
T1 sequence (P07550 whole entry): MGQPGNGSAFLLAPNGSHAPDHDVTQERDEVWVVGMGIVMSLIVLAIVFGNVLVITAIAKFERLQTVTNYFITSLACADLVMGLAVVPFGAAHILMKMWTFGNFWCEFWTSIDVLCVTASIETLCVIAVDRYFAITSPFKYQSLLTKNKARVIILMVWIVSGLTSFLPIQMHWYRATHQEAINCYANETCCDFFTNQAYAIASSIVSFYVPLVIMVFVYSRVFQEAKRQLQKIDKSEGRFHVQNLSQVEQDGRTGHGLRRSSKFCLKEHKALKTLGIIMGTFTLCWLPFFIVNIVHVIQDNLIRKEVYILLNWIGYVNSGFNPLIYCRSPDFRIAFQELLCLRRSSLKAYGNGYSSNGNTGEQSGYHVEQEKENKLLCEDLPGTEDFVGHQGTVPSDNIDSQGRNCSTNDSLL

As to `CCCN(CCC)[C@H]1CCc2c(O)cccc2C1`, the Ki in assay [1] was found to be 40000 nM.

For the compound `CCCN(CCC)[C@@H]1CCc2ccc(O)cc2C1`, affinity in [1] was put at a Ki of 86000 nM.

For `COc1cc(CCNC[C@@H](O)c2ccc(O)c(O)c2)ccc1OCCCc1ccccc1`, the Ki in [2] was found to be 2500 nM; in [1] it was 47 nM; at D(3) dopamine receptor, 660 nM; at D(2) dopamine receptor [4] it was 1700 nM; in assay [5], 530 nM; at D(2) dopamine receptor [6], 1900 nM. In addition, the figures for the Ki on D(1A) dopamine receptor and at D(4) dopamine receptor were 2900 nM and 1000 nM, respectively. Further, the EC50 amounted to 650 nM in assay [3] and 2600 nM in assay [7].

As for `COc1ccccc1OCCNCCc1ccc(O)c(O)c1`, the Ki in [2] was found to be 390 nM; in [8] it was 4.7 nM; in assay [1], 610 nM; on D(3) dopamine receptor it was 25 nM; on D(2) dopamine receptor [4], 48 nM; in assay [5], 5000 nM. The Ki at D(2) dopamine receptor [6] is 85 nM; on D(1A) dopamine receptor, 210 nM; on D(4) dopamine receptor, 4.5 nM. Besides, the EC50 turned out to be 25 nM at D(2) dopamine receptor [9] and 720 nM in assay [7].

Consider `COc1cc(CCNC[C@H](O)c2ccc(O)c3[nH]c(=O)ccc23)ccc1OCCCc1ccccc1`, for which the Ki in assay [8] came to 1400 nM; in assay [1], 0.48 nM; at D(3) dopamine receptor, 1700 nM; at D(2) dopamine receptor [4], 3200 nM; in assay [5], 5.8 nM; on D(2) dopamine receptor [6], 5700 nM. Further, the inhibition constant (Ki) stood at 11000 nM at D(1A) dopamine receptor and 3300 nM on D(4) dopamine receptor. Further, the values for the concentration for a half-maximal effect (EC50) in assay [3] and in [7] were 22 nM and 6.2 nM, respectively.

Take `COc1cc(CCNC[C@H](O)c2ccc(O)c(O)c2)ccc1OCCCc1ccccc1`: the Ki in assay [2] was found to be 1200 nM; in assay [8] it was 16 nM; in [1] it was 18 nM; on D(3) dopamine receptor it was 62 nM; at D(2) dopamine receptor [4], 67 nM; in assay [5] it was 85 nM. Further, the values for the inhibition constant (Ki) at D(2) dopamine receptor [6], on D(1A) dopamine receptor and on D(4) dopamine receptor were 110 nM, 430 nM and 140 nM, respectively. Also, the EC50 was 260 nM in [3], 200 nM at D(2) dopamine receptor [9] and 5100 nM in [7].

With `COc1cc(CCNC[C@@H](O)c2ccc(O)c3c2OCC(=O)N3)ccc1OCCCc1ccccc1`, the Ki in assay [2] is 2200 nM; in assay [8], 1100 nM; in [1] it was 13 nM; on D(3) dopamine receptor it was 400 nM; at D(2) dopamine receptor [4] it was 96 nM; in assay [5], 180 nM. The Ki on D(2) dopamine receptor [6] turned out to be 310 nM; at D(1A) dopamine receptor, 2800 nM; on D(4) dopamine receptor, 5400 nM. The EC50 on D(2) dopamine receptor [10] worked out at 8800 nM; in assay [3], 580 nM; at D(2) dopamine receptor [9], 7.3 nM; in [7], 1000 nM.

As for `COc1ccccc1OCCNC[C@@H](O)COc1cccc2[nH]c3ccccc3c12` [(R)-Carvedilol], the Ki at D(2) dopamine receptor [4] was found to be 26 nM. This counts as double-digit nanomolar.

`COc1cc(CCNCCc2ccc(O)c3[nH]c(=O)ccc23)ccc1OCCCc1ccccc1`: the inhibitory constant (Ki) was 13000 nM in [2]; 920 nM in [8]; 6.3 nM in [1]; 18 nM on D(3) dopamine receptor; 160 nM at D(2) dopamine receptor [4]; 150 nM in assay [5]. Besides, the Ki on D(2) dopamine receptor [6] stood at 64 nM; on D(1A) dopamine receptor, 2800 nM; on D(4) dopamine receptor, 900 nM. Besides, the figures for the EC50 on D(2) dopamine receptor [10] and at D(2) dopamine receptor [9] were 240 nM and 17 nM, respectively.

Turning to `COc1ccccc1OCCNC[C@H](O)c1ccc(O)c(O)c1`, the Ki in assay [2] is 420 nM; in [8] it was 50 nM; in assay [1], 97 nM; on D(3) dopamine receptor, 2200 nM; at D(2) dopamine receptor [4] it was 430 nM; in [5], 160 nM. The Ki turned out to be 640 nM at D(2) dopamine receptor [6], 890 nM on D(1A) dopamine receptor and 300 nM on D(4) dopamine receptor. The EC50 in assay [3] came out at 210 nM; at D(2) dopamine receptor [9], 170 nM; in assay [7] it was 120 nM.

Turning to `COc1cc(CCNCCc2ccc(O)c(O)c2)ccc1OCCCc1ccccc1`, the Ki came out at 810 nM in assay [2]; 400 nM in assay [8]; 53 nM in assay [1]; 12 nM at D(3) dopamine receptor; 120 nM at D(2) dopamine receptor [4]; 2300 nM in assay [5]. The Ki on D(2) dopamine receptor [6] was 63 nM; on D(1A) dopamine receptor, 860 nM; on D(4) dopamine receptor, 38 nM. Also, the EC50 turned out to be 2600 nM at D(2) dopamine receptor [10], 110 nM at D(2) dopamine receptor [9] and 47000 nM in assay [7].

Regarding `COc1cc(CCNC[C@@H](O)c2ccc(O)c3[nH]c(=O)ccc23)ccc1OCCCc1ccccc1`, the Ki stood at 1800 nM in assay [8]; 23 nM in assay [1]; 790 nM at D(3) dopamine receptor; 2300 nM on D(2) dopamine receptor [4]; 300 nM in assay [5]; 2900 nM at D(2) dopamine receptor [6]. For the same compound, the Ki on D(1A) dopamine receptor was found to be 6800 nM; on D(4) dopamine receptor it was 9200 nM. Besides, the EC50 in assay [3] came out at 510 nM; in assay [7] it was 840 nM.

Take `CNC[C@H](O)c1ccc(O)c(O)c1` [EPINEPHRINE]: the Ki at D(2) dopamine receptor [4] turned out to be 910 nM.

The compound `CCCN1CCC[C@@H]2Cc3n[nH]cc3C[C@H]21` [QUINPIROLE] came in with a Ki in assay [1] of 100000 nM.

On to `CCC(NC(C)C)C(O)c1ccc(O)c2[nH]c(=O)ccc12` (centres undefined) [PROCATEROL], for which the Ki in [1] stood at 33 nM; at D(2) dopamine receptor [4] it was 86000 nM. In the assay listed under Homo sapiens, the Ratio Ki amounted to 2600.

Turning to `OCc1cc(C(O)CNCCCCCCOCCCCc2ccccc2)ccc1O` (centres undefined) [SALMETEROL], on D(2) dopamine receptor [4], the Ki is 32000 nM. That is a double-digit micromolar value.

In the case of `CCCN[C@H]1CCc2nc(N)sc2C1` [PRAMIPEXOLE], in [1], the inhibitory constant (Ki) came out at 100000 nM.

Turning to `COc1cc(CCNCCc2ccc(O)c3c2OCC(=O)N3)ccc1OCCCc1ccccc1`, the Ki in assay [2] was 270 nM; in assay [8], 120 nM; in [1] it was 2.8 nM; on D(3) dopamine receptor, 3.5 nM; on D(2) dopamine receptor [4], 17 nM; in assay [5] it was 79 nM. The figures for the Ki at D(2) dopamine receptor [6], at D(1A) dopamine receptor and at D(4) dopamine receptor were 12 nM, 960 nM and 55 nM, respectively. For the same compound, the 50% effective concentration (EC50) came out at 1100 nM on D(2) dopamine receptor [10] and 2.6 nM at D(2) dopamine receptor [9].

Take `COc1ccccc1OCCNC[C@@H](O)c1ccc(O)c(O)c1`: the Ki in [2] came to 760 nM; in assay [8], 19 nM; in [1], 850 nM; at D(3) dopamine receptor, 610 nM; at D(2) dopamine receptor [4] it was 200 nM; in assay [5], 1500 nM. For the same compound, the results for the Ki on D(2) dopamine receptor [6], on D(1A) dopamine receptor and at D(4) dopamine receptor were 350 nM, 430 nM and 240 nM, respectively. Also, the results for the EC50 in [3] and in [7] were 2200 nM and 1400 nM, respectively.

The compound `NC[C@H](O)c1ccc(O)c(O)c1` [NOREPINEPHRINE] had a Ki on D(2) dopamine receptor [4] of 1300 nM.

In the case of `CC(C)NCC(O)c1ccc(O)c(O)c1` (centres undefined) [ISOPROTERENOL], the Ki in assay [2] was 5700 nM; in [8], 78000 nM; on D(3) dopamine receptor it was 4700 nM; on D(2) dopamine receptor [4], 12000 nM; on D(2) dopamine receptor [6], 48000 nM; at D(1A) dopamine receptor, more than 50000 nM. Besides, affinity at D(4) dopamine receptor was put at a Ki of 2900 nM.

For `COc1cc(CCNC[C@H](O)c2ccc(O)c3c2OCC(=O)N3)ccc1OCCCc1ccccc1`, the Ki in assay [2] stood at 4700 nM; in [8] it was 1900 nM; in assay [1] it was 0.25 nM; at D(3) dopamine receptor, 690 nM; at D(2) dopamine receptor [4], 65 nM; in assay [5], 5.1 nM. Moreover, the figures for the Ki at D(2) dopamine receptor [6], on D(1A) dopamine receptor and at D(4) dopamine receptor were 130 nM, 4500 nM and 1400 nM, respectively. The EC50 on D(2) dopamine receptor [10] was determined as 13000 nM; in [3] it was 13 nM; at D(2) dopamine receptor [9], 98 nM; in assay [7] it was 7 nM.

For the origin of these results see ChEMBL document CHEMBL3797035 (Bioorg Med Chem, 2016).
